From ChEMBL document CHEMBL1152842, “Synthesis, Raman, FT-IR, NMR spectroscopic data and antimicrobial activity of mixed aza-oxo-thia macrocyclic compounds” (2009) come the findings set out here.

What all share (type): functional
Assay [1] relates to Escherichia coli. As to the kind of experiment: Antibacterial activity against Escherichia coli ATCC 11230 at 10 units after 24 hrs by disk diffusion method. Background: Agar diffusion results depend on both activity and mobility in agar.
The test system of assay [2] is Staphylococcus aureus. As to the kind of experiment: Antibacterial activity against Staphylococcus aureus ATCC 6538 at 10 units after 24 hrs by disk diffusion method.
Assay [3] has as its system Klebsiella pneumoniae. As to the kind of experiment: Antibacterial activity against Klebsiella pneumoniae UC57 at 10 units after 24 hrs by disk diffusion method.
Assay [4] concerns Pseudomonas aeruginosa. In words: Antibacterial activity against Pseudomonas aeruginosa ATCC 27853 at 10 units after 24 hrs by disk diffusion method.
The test system of assay [5] is Proteus vulgaris. In words: Antibacterial activity against Proteus vulgaris ATCC 8427 at 10 units after 24 hrs by disk diffusion method.
Assay [6] concerns Bacillus cereus. As to the kind of experiment: Antibacterial activity against Bacillus cereus ATCC 7064 at 10 units after 24 hrs by disk diffusion method.
The test system of assay [7] is Mycolicibacterium smegmatis. As to the kind of experiment: Antibacterial activity against Mycobacterium smegmatis CCM 2067 at 10 units after 24 hrs by disk diffusion method.
Assay [8] has as its system Listeria monocytogenes. In words: Antibacterial activity against Listeria monocytogenes ATCC 15313 at 10 units after 24 hrs by disk diffusion method.
The test system of assay [9] is Micrococcus luteus. In words: Antibacterial activity against Micrococcus luteus La 2971 at 10 units after 24 hrs by disk diffusion method.
Assay [10] deals with Escherichia coli. In words: Antibacterial activity against Escherichia coli ATCC 11230 at 1 ug after 24 hrs by disk diffusion method. The following applies: ATCC 11230, 24 h, read-out: IZ.
The subject of assay [11] is Staphylococcus aureus. As to the kind of experiment: Antibacterial activity against Staphylococcus aureus ATCC 6538 at 1 ug after 24 hrs by disk diffusion method. The note with it: ATCC 6538, 24 h, read-out: IZ.
Assay [12] concerns Klebsiella pneumoniae. In words: Antibacterial activity against Klebsiella pneumoniae UC57 at 1 ug after 24 hrs by disk diffusion method. The note with it: read-out: IZ.
Assay [13] has as its system Pseudomonas aeruginosa. As to the kind of experiment: Antibacterial activity against Pseudomonas aeruginosa ATCC 27853 at 1 ug after 24 hrs by disk diffusion method. The following applies: ATCC 27853, 24 h, read-out: IZ.
Assay [14] deals with Proteus vulgaris. As to the kind of experiment: Antibacterial activity against Proteus vulgaris ATCC 8427 at 1 ug after 24 hrs by disk diffusion method. The following applies: ATCC 8427, 24 h, read-out: IZ.
In assay [15] the test system is Bacillus cereus. As to the kind of experiment: Antibacterial activity against Bacillus cereus ATCC 7064 at 1 ug after 24 hrs by disk diffusion method. The note with it: ATCC 7064, 24 h, read-out: IZ.
Assay [16] deals with Mycolicibacterium smegmatis. As to the kind of experiment: Antibacterial activity against Mycobacterium smegmatis CCM 2067 at 1 ug after 24 hrs by disk diffusion method. The following applies: CCM 2067, 24 h, read-out: IZ.
Assay [17] deals with Listeria monocytogenes. In words: Antibacterial activity against Listeria monocytogenes ATCC 15313 at 1 ug after 24 hrs by disk diffusion method. The note with it: ATCC 15313, 24 h, read-out: IZ.
Assay [18] relates to Micrococcus luteus. As to the kind of experiment: Antibacterial activity against Micrococcus luteus La 2971 at 1 ug after 24 hrs by disk diffusion method. The following applies: read-out: IZ.
For assay [19], the system named is Escherichia coli. In words: Antibacterial activity against Escherichia coli ATCC 11230 after 24 hrs by twofold serial dilution method.
Assay [20] has as its system Staphylococcus aureus. As to the kind of experiment: Antibacterial activity against Staphylococcus aureus ATCC 6538 after 24 hrs by twofold serial dilution method.
Assay [21] has as its system Klebsiella pneumoniae. In words: Antibacterial activity against Klebsiella pneumoniae UC57 after 24 hrs by twofold serial dilution method.
In assay [22] the test system is Pseudomonas aeruginosa. As to the kind of experiment: Antibacterial activity against Pseudomonas aeruginosa ATCC 27853 after 24 hrs by twofold serial dilution method.
The test system of assay [23] is Proteus vulgaris. As to the kind of experiment: Antibacterial activity against Proteus vulgaris ATCC 8427 after 24 hrs by twofold serial dilution method.
For assay [24], the system named is Bacillus cereus. In words: Antibacterial activity against Bacillus cereus ATCC 7064 after 24 hrs by twofold serial dilution method.
The test system of assay [25] is Mycolicibacterium smegmatis. As to the kind of experiment: Antibacterial activity against Mycobacterium smegmatis CCM 2067 after 24 hrs by twofold serial dilution method.
In assay [26] the test system is Listeria monocytogenes. As to the kind of experiment: Antibacterial activity against Listeria monocytogenes ATCC 15313 after 24 hrs by twofold serial dilution method.
Assay [27] has as its system Micrococcus luteus. In words: Antibacterial activity against Micrococcus luteus La 2971 after 24 hrs by twofold serial dilution method.
For assay [28], the system named is Kluyveromyces marxianus. As to the kind of experiment: Antifungal activity against Kluyveromyces fragilis NRRL 2415 at 1 ug after 72 hrs by disk diffusion method.
Assay [29] has as its system Rhodotorula mucilaginosa. In words: Antifungal activity against Rhodotorula rubra DSM 70403 at 1 ug after 72 hrs by disk diffusion method.
The test system of assay [30] is Hanseniaspora guilliermondii. In words: Antifungal activity against Hanseniaspora guilliermondii DSM 3432 at 1 ug after 72 hrs by disk diffusion method.
Assay [31] has as its system Debaryomyces hansenii. As to the kind of experiment: Antifungal activity against Debaryomyces hansenii DSM 70238 at 1 ug after 72 hrs by disk diffusion method.
The subject of assay [32] is Candida albicans. As to the kind of experiment: Antifungal activity against Candida albicans ATCC 10231 after 48 hrs by twofold serial dilution method.
Assay [33] concerns Kluyveromyces marxianus. As to the kind of experiment: Antifungal activity against Kluyveromyces fragilis NRRL 2415 after 48 hrs by twofold serial dilution method.
Assay [34] relates to Rhodotorula mucilaginosa. In words: Antifungal activity against Rhodotorula rubra DSM 70403 after 48 hrs by twofold serial dilution method.
Assay [35] concerns Hanseniaspora guilliermondii. In words: Antifungal activity against Hanseniaspora guilliermondii DSM 3432 after 48 hrs by twofold serial dilution method.
The test system of assay [36] is Debaryomyces hansenii. In words: Antifungal activity against Debaryomyces hansenii DSM 70238 after 48 hrs by twofold serial dilution method.

`CC1(C)S[C@@H]2[C@H](NC(=O)Cc3ccccc3)C(=O)N2[C@H]1C(=O)O` [PENICILLIN G]: the “inhibition zone (IZ)” value in [1] is listed as 18 mm; in [2], 13 mm; in assay [3], 18 mm; in [4] it was 14 mm; in assay [5], 36 mm; in [6], 10 mm. Also, the “inhibition zone (IZ)” value is 15 mm in [7], 10 mm in [8] and 8 mm in assay [9].

Regarding `CN[C@H](CC(C)C)C(=O)N[C@H]1C(=O)N[C@@H](CC(N)=O)C(=O)N[C@H]2C(=O)N[C@H]3C(=O)N[C@H](C(=O)N[C@H](C(=O)O)c4cc(O)cc(O)c4-c4cc3ccc4O)[C@H](O)c3ccc(c(Cl)c3)Oc3cc2cc(c3O[C@@H]2O[C@H](CO)[C@@H](O)[C@H](O)[C@H]2O[C@H]2C[C@](C)(N)[C@H](O)[C@H](C)O2)Oc2ccc(cc2Cl)[C@H]1O` [VANCOMYCIN], the zone of inhibition at 1 µg/disc in assay [10] is 22 mm; in assay [11] it was 13 mm; in assay [12], 22 mm; in assay [13], 18 mm; in [14], 34 mm; in assay [15], 20 mm. For the same compound, the results for the zone of inhibition at 1 µg/disc in assay [16], in assay [17] and in assay [18] were 20 mm, 26 mm and 10 mm, respectively.

As a reminder, the MIC is the smallest concentration in the dilution series that meets the test's criterion for growth inhibition. High values mean weaker potency, low ones greater potency. As for GENTAMICIN, the MIC was determined as 6.25 mg/L in [19]; 25 mg/L in [20]; 6.25 mg/L in [21]; 6.25 mg/L in assay [22]; 25 mg/L in assay [23]; 6.25 mg/L in [24]. Besides, the MIC in [25] came out at 12.5 mg/L; in assay [26], 12.5 mg/L; in [27], 6.25 mg/L.

For NYSTATIN, the inhibition zone (IZ) came to 18 mm in [28], 20 mm in assay [29], 21 mm in assay [30] and 16 mm in assay [31]. Further, the MIC in assay [32] turned out to be 6.25 mg/L; in assay [33], 6.25 mg/L; in assay [34], 3.12 mg/L; in assay [35], 3.12 mg/L; in assay [36], 12.5 mg/L.
